Reference: PMC4102434 (Biochemical pharmacology, 2012)

Assays:
Type in all cases: biochemical
CES1 [1] = target: T1, CES1 (Homo sapiens, UniProt P23141); test: p-nitrophenylacetate hydrolysis, absorbance at […] nm; settings: read-out: % inhibition at 100 nM
T1 sequence (P23141 18-567): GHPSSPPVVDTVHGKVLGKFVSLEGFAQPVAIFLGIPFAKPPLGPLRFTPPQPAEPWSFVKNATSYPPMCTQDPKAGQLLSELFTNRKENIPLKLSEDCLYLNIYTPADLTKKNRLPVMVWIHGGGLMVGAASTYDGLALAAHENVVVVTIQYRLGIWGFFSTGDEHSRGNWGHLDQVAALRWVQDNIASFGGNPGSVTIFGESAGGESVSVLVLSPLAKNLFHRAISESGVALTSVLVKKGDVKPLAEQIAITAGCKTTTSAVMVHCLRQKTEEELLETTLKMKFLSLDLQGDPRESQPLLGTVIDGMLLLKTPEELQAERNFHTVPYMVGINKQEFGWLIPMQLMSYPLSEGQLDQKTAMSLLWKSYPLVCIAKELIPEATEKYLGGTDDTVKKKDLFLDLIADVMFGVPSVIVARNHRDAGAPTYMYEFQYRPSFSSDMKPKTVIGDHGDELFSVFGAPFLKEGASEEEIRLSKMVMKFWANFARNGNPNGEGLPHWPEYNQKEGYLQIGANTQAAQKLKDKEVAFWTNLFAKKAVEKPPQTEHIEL

ces1d [2] = target: T2, ces1d (Rattus norvegicus, UniProt P16303); test: as above; settings: read-out: % inhibition at 10 nM
T2 sequence (P16303 19-565): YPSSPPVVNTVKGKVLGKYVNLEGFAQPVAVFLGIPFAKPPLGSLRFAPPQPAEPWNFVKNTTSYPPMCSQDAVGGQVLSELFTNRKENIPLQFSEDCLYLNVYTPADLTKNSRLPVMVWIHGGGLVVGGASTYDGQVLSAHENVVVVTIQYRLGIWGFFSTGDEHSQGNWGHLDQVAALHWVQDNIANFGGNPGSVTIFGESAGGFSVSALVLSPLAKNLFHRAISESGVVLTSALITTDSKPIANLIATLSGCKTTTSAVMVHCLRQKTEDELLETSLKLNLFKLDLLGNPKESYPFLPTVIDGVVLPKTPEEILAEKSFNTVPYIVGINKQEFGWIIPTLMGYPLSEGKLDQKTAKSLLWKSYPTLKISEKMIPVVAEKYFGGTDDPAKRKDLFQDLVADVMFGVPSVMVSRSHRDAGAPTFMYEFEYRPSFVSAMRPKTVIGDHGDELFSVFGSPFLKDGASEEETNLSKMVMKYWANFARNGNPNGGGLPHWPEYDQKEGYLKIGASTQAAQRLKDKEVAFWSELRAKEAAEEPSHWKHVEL

ces1d [3] = target: T3, ces1d (Mus musculus, UniProt Q8VCT4); test: as above; settings: read-out: % inhibition at 1 nM
T3 sequence (Q8VCT4 19-565): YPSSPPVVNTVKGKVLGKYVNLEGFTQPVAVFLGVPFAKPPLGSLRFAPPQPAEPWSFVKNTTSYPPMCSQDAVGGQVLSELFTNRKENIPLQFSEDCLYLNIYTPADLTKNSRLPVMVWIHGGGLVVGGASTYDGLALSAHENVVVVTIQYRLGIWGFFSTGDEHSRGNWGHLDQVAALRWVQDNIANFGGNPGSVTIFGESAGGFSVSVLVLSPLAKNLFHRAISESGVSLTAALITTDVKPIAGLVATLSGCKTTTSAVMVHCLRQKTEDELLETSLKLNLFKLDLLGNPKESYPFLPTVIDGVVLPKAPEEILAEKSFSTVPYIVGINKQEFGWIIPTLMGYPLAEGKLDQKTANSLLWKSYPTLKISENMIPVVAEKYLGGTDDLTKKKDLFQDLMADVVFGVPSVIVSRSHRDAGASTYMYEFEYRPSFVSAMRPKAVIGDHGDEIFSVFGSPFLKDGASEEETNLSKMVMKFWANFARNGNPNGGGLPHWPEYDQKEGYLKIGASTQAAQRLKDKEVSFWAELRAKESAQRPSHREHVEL

ces2e [4] = target: T4, ces2e (Mus musculus, UniProt Q8BK48); test: as above; settings: read-out: % inhibition at 1 nM
T4 sequence (Q8BK48 27-559): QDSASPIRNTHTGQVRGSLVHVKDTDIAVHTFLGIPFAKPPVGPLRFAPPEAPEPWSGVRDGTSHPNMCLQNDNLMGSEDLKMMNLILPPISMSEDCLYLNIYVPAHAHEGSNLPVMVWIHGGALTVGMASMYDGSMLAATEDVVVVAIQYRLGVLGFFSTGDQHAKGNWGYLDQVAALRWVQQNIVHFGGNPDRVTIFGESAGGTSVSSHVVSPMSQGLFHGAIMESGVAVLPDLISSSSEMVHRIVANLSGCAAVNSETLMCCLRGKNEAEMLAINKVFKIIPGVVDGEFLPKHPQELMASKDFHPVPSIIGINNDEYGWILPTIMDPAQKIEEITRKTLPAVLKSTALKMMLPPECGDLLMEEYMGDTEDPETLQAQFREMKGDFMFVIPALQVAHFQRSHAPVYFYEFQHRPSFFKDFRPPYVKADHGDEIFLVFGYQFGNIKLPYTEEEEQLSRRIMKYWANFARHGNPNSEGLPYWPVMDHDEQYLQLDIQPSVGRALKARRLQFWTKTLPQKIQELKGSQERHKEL

ces1e [5] = target: T5, ces1e (Rattus norvegicus, UniProt Q63108); test: as above; settings: read-out: % inhibition at 10 nM
T5 sequence (Q63108 19-561): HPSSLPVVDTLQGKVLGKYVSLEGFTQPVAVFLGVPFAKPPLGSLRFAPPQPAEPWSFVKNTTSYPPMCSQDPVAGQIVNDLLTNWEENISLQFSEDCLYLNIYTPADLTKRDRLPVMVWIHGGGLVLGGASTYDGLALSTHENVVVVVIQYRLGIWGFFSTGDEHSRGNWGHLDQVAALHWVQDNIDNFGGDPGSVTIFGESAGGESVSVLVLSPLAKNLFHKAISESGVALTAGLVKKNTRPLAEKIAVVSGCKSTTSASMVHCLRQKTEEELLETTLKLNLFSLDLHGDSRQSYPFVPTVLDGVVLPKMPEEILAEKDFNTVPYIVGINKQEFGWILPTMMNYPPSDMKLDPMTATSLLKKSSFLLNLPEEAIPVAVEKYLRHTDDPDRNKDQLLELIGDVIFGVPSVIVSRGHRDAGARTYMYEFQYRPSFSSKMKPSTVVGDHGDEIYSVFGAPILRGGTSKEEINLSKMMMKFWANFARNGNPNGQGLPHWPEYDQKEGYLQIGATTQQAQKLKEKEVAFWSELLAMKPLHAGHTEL

ces2c [6] = target: T6, ces2c (Mus musculus, UniProt Q91WG0); test: as above; settings: read-out: % inhibition at 1 nM
T6 sequence (Q91WG0 27-561): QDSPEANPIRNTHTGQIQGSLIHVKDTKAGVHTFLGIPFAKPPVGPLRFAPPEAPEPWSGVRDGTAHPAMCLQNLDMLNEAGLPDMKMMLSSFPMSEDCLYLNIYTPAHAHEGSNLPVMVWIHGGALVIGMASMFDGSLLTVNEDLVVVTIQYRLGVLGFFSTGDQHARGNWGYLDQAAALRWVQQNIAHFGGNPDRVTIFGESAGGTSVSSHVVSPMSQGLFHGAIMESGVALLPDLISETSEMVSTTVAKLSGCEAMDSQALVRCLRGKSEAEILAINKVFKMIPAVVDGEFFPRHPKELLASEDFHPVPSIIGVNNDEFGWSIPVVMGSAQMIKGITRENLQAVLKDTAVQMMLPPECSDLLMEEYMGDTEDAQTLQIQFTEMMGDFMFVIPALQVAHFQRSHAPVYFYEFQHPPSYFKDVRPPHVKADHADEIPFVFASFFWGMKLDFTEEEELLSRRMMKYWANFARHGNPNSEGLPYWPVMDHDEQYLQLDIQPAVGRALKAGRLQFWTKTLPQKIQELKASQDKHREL

CES2 = target: T7, CES2 (Homo sapiens, UniProt O00748); test: hydrolysis, absorbance at […] nm; settings: 293T lysate, potassium phosphate pH 7.4
T7 sequence (O00748 27-559): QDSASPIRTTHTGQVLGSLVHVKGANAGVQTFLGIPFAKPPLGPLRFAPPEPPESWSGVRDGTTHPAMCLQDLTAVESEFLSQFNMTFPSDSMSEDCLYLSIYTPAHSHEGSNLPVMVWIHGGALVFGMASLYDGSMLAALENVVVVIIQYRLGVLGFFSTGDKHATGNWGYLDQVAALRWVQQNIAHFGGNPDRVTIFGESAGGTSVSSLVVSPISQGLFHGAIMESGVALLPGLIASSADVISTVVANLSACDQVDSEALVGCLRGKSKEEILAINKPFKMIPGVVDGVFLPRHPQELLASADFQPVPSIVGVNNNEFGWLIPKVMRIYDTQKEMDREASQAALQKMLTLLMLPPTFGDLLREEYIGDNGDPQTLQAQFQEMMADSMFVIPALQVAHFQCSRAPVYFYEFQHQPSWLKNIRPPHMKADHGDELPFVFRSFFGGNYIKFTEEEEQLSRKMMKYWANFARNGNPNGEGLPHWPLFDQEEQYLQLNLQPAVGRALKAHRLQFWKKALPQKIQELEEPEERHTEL

ces1d [7] = target: T2, ces1d; test: hydrolysis, absorbance at […] nm; settings: 293T lysate, potassium phosphate pH 7.4
ces1e [8] = target: T5, ces1e; test: hydrolysis, absorbance at […] nm; settings: 293T lysate, potassium phosphate pH 7.4
ces2c [9] = target: T6, ces2c; test: hydrolysis, absorbance at […] nm; settings: 293T lysate, potassium phosphate pH 7.4
CES1 [10] = target: T1, CES1; test: hydrolysis, absorbance at […] nm; settings: 293T lysate, potassium phosphate pH 7.4
ces2e [11] = target: T4, ces2e; test: hydrolysis, absorbance at […] nm; settings: 293T lysate, potassium phosphate pH 7.4
ces1d [12] = target: T3, ces1d; test: hydrolysis, absorbance at […] nm; settings: 293T lysate, potassium phosphate pH 7.4

Row | SMILES | inhibition at 0.1 µM (CES1 [1]) [%] | inhibition at 0.01 µM (ces1d [2]) [%] | inhibition at 0.001 µM (ces1d [3]) [%] | inhibition at 0.001 µM (ces2e [4]) [%] | inhibition at 0.01 µM (ces1e [5]) [%] | inhibition at 0.001 µM (ces2c [6]) [%] | hydrolysis, absorbance at 400 nm (CES2) | hydrolysis, absorbance at 400 nm (ces1d [7]) | hydrolysis, absorbance at 400 nm (ces1e [8]) | hydrolysis, absorbance at 400 nm (ces2c [9]) | hydrolysis, absorbance at 400 nm (CES1 [10]) | hydrolysis, absorbance at 400 nm (ces2e [11]) | hydrolysis, absorbance at 400 nm (ces1d [12])
1 | CCCCCCCCCCC[C@@H](C[C@@H]1OC(=O)[C@H]1CCCCCC)OC(=O)[C@H](CC(C)C)NC=O [orlistat] | ~30 | 20 | 12 | 55 | 20 | 90 | – | – | – | – | – | – | –
2 | CC(=O)Oc1ccc([N+](=O)[O-])cc1 [p-nitrophenylacetate] | – | – | – | – | – | – | Inhibition of p-nitrophenylacetate hydrolysis of recombinant carboxylesterases from human (A), mouse (B) or rat | Inhibition of p-nitrophenylacetate hydrolysis of recombinant carboxylesterases from human (A), mouse (B) or rat | Inhibition of p-nitrophenylacetate hydrolysis of recombinant carboxylesterases from human (A), mouse (B) or rat | Inhibition of p-nitrophenylacetate hydrolysis of recombinant carboxylesterases from human (A), mouse (B) or rat | Inhibition of p-nitrophenylacetate hydrolysis of recombinant carboxylesterases from human (A), mouse (B) or rat | Inhibition of p-nitrophenylacetate hydrolysis of recombinant carboxylesterases from human (A), mouse (B) or rat | Inhibition of p-nitrophenylacetate hydrolysis of recombinant carboxylesterases from human (A), mouse (B) or rat
